System: yeast genes (level of expressed mRNA)
Assay: DNA chip analysis of expressed mRNA of yeast genes after 2 h culture with a toxic chemical substance
Assay type: cell-based, Saccharomyces cerevisiae S288C
Protocol: Yeast (Saccharomyces cerevtisiae S288C (α SUC2mal mel gap2 CUP1)) were cultured at 25° C. on YPD medium (yeast extract 1%, polypepton 2%, glucose 2%). One of toxic chemical substances was added to the cell at logarithmic growth phase, and the cell was further cultured for two hours. Cell was cultured without any chemical substance in the same condition, and was used as control. Concentrations of the chemical substances were defined to inhibit the growth of the yeast but not lead to death.
After the completion of cultivation, the culture was centrifuged to collect the cells. To the cells, sodium acetate buffer (50 mM sodium acetate, 10 mM EDTA, 1% SDS) was added, and the mixture was shaken at 65° C. for five minutes, followed by returning to room temperature, and obtaining the supernatant, which procedure was repeated two times. To the supernatant, ½ amount of a solution of phenol/chloroform was added, and the mixture was centrifuged to give a supernatant, which was added with an equal amount of chloroform, and the mixture was centrifuged to give a supernatant. To the supernatant, an equal amount of isopropanol containing 0.3 M sodium acetate was added, and the mixture was allowed to stand at room temperature for 30 minutes, after which the mixture was centrifuged to give a sediment of the whole RNAs. Seventy % ethanol was added to the sediment, and the mixture was again centrifuged to give a sediment, which was then dried and dissolved in water. mRNA was isolated from the whole RNAs as followings. In view of the fact that a poly A chain is attached to the 3′ terminus of mRNA, a polynucleotide having a poly T structure which was immobilized on the surface of latex beads was used to trap the mRNA, and then the mRNA was washed and eluted with spine column (Oligotex-dT30<Super>mRNA Purification Kit, Takara). Reverse transcription of the mRNA was conducted with a reverse transcriptase (Super Script II Reverse Transcriptase; catalogue No. 18064-014, GibcoBRL) using fluorescence-labeled nucleotides to give cDNAs that were introduced with Cy3-dUTP or Cy5-dUTP during the reverse transcription.
The labeled cDNAs were dissolved in TE buffer (10 mM Tris-HCl/1 mM EDTA, pH8.0), and the solution was dropped on the DNA chip containing the whole genes of yeast (DNA Chip Research Inc. Japan) so that the cDNAs were hybridized on the DNA chip at 65° C. for over 12 hours. The fluoresces intensity of the DNA chip was read with a scanner, and the ratio relative to the fluorescence intensity resulting from the absence of chemical substance was estimated as the following, which is shown in Tables 1 to 9: [formula]
In the Tables, “Intensity” indicated in the rightmost column is a value of the level of expressed mRNA of each gene in control cells as divided by the average level of the expressions of the whole genes.

## Na2As [(1)]
Yeast gene YFL010C, ratio to control without chemical substance, 2 h culture
  The level of expressed mRNA in the presence of chemical substance/: 1.0
Yeast gene YFL024C, ratio to control without chemical substance, 2 h culture
  The level of expressed mRNA in the presence of chemical substance/: 1.0
Yeast gene YFL028C
  The level of expressed mRNA in the presence of chemical substance/The level of expressed mRNA in the absence of chemical substance: 1.2
Yeast gene YFL032W, ratio to control without chemical substance, 2 h culture
  The level of expressed mRNA in the presence of chemical substance/: 0.4
Yeast gene YFL043C
  The level of expressed mRNA in the presence of chemical substance/The level of expressed mRNA in the absence of chemical substance: 1.0
Yeast gene YGL035C
  The level of expressed mRNA in the presence of chemical substance/in the absence of chemical substance: 0.7
Yeast gene YGL037C, ratio to control without chemical substance, 2 h culture
  The level of expressed mRNA in the presence of chemical substance/: 1.5
Yeast gene YGL047W, ratio to control without chemical substance, 2 h culture
  The level of expressed mRNA in the presence of chemical substance/: 1.0
Yeast gene YGL053W, ratio to control without chemical substance, 2 h culture
  The level of expressed mRNA in the presence of chemical substance/: 1.5
Yeast gene YGL121C, ratio to control without chemical substance, 2 h culture
  The level of expressed mRNA in the presence of chemical substance/: 2.6
Yeast gene YGL158W
  The level of expressed mRNA in the presence of chemical substance/The level of expressed mRNA in the absence of chemical substance: 1.1
Yeast gene YGL199C, ratio to control without chemical substance, 2 h culture
  The level of expressed mRNA in the presence of chemical substance/: 1.1
Yeast gene YGL229C
  The level of expressed mRNA in the presence of chemical substance/The level of expressed mRNA in the absence of chemical substance: 0.6
Yeast gene YGR101W, ratio to control without chemical substance, 2 h culture
  The level of expressed mRNA in the presence of chemical substance/: 1.0
Yeast gene YGR110W, ratio to control without chemical substance, 2 h culture
  The level of expressed mRNA in the presence of chemical substance/: 1.6
Yeast gene YGR130C, ratio to control without chemical substance, 2 h culture
  The level of expressed mRNA in the presence of chemical substance/: 0.9
Yeast gene YGR136W
  The level of expressed mRNA in the presence of chemical substance/The level of expressed mRNA in the absence of chemical substance: 0.9
Yeast gene YGR154C, ratio to control without chemical substance, 2 h culture
  The level of expressed mRNA in the presence of chemical substance/: 1.8
Yeast gene YGR189C
  The level of expressed mRNA in the presence of chemical substance/The level of expressed mRNA in the absence of chemical substance: 1.1
Yeast gene YGR213C
  The level of expressed mRNA in the presence of chemical substance/The level of expressed mRNA in the absence of chemical substance: 5.4
Yeast gene YGR221C, ratio to control without chemical substance, 2 h culture
  The level of expressed mRNA in the presence of chemical substance/: 0.9
Yeast gene YGR257C
  The level of expressed mRNA in the presence of chemical substance/The level of expressed mRNA in the absence of chemical substance: 0.7
Yeast gene YGR287C
  The level of expressed mRNA in the presence of chemical substance/in the absence of chemical substance: 1.3
Yeast gene YHR004C
  The level of expressed mRNA in the presence of chemical substance/The level of expressed mRNA in the absence of chemical substance: 0.9
Yeast gene YHR071W
  The level of expressed mRNA in the presence of chemical substance/The level of expressed mRNA in the absence of chemical substance: 1.5
Yeast gene YHR138C, ratio to control without chemical substance, 2 h culture
  The level of expressed mRNA in the presence of chemical substance/: 2.8
Yeast gene YHR139C
  The level of expressed mRNA in the presence of chemical substance/The level of expressed mRNA in the absence of chemical substance: 3.0
Yeast gene YHR142W
  The level of expressed mRNA in the presence of chemical substance/The level of expressed mRNA in the absence of chemical substance: 1.5
Yeast gene YHR199C, ratio to control without chemical substance, 2 h culture
  The level of expressed mRNA in the presence of chemical substance/: 1.9
Yeast gene YIL023C, ratio to control without chemical
  The level of expressed mRNA in the presence of chemical substance/: 1.1
Yeast gene YIL041W, ratio to control without chemical substance, 2 h culture
  The level of expressed mRNA in the presence of chemical substance/: 1.0
Yeast gene YIL087C, ratio to control without chemical substance, 2 h culture
  The level of expressed mRNA in the presence of chemical substance/: 1.3
Yeast gene YIL123W
  The level of expressed mRNA in the presence of chemical substance/The level of expressed mRNA in the absence of chemical substance: 1.0
Yeast gene YIL140W
  The level of expressed mRNA in the presence of chemical substance/The level of expressed mRNA in the absence of chemical substance: 0.7
Yeast gene YJL057C, ratio to control without chemical substance, 2 h culture
  The level of expressed mRNA in the presence of chemical substance/: 1.5
Yeast gene YJL066C, ratio to control without chemical substance, 2 h culture
  The level of expressed mRNA in the presence of chemical substance/: 0.9
Yeast gene YJL070C
  The level of expressed mRNA in the presence of chemical substance/in the absence of chemical substance: 1.3
Yeast gene YJL073W
  The level of expressed mRNA in the presence of chemical substance/The level of expressed mRNA in the absence of chemical substance: 0.8
Yeast gene YJL082W, ratio to control without chemical substance, 2 h culture
  The level of expressed mRNA in the presence of chemical substance/: 1.4
Yeast gene YJL089W
  The level of expressed mRNA in the presence of chemical substance/The level of expressed mRNA in the absence of chemical substance: 1.1
Yeast gene YJL116C
  The level of expressed mRNA in the presence of chemical substance/The level of expressed mRNA in the absence of chemical substance: 0.9
Yeast gene YJL151C, ratio to control without chemical substance, 2 h culture
  The level of expressed mRNA in the presence of chemical substance/: 1.0
Yeast gene YJL152W, ratio to control without chemical substance, 2 h culture
  The level of expressed mRNA in the presence of chemical substance/: 0.9
Yeast gene YJL161W, ratio to control without chemical substance, 2 h culture
  The level of expressed mRNA in the presence of chemical substance/: 1.7
Yeast gene YJL167W
  The level of expressed mRNA in the presence of chemical substance/in the absence of chemical substance: 0.9
Yeast gene YJL171C, ratio to control without chemical substance, 2 h culture
  The level of expressed mRNA in the presence of chemical substance/: 2.3
Yeast gene YJL216C
  The level of expressed mRNA in the presence of chemical substance/in the absence of chemical substance: 0.8
Yeast gene YJR004C
  The level of expressed mRNA in the presence of chemical substance/The level of expressed mRNA in the absence of chemical substance: 0.2
Yeast gene YJR008W, ratio to control without chemical substance, 2 h culture
  The level of expressed mRNA in the presence of chemical substance/: 1.6
Yeast gene YJR054W, ratio to control without chemical
  The level of expressed mRNA in the presence of chemical substance/: 0.8
Yeast gene YJR086W
  The level of expressed mRNA in the presence of chemical substance/The level of expressed mRNA in the absence of chemical substance: 1.2
Yeast gene YKL008C
  The level of expressed mRNA in the presence of chemical substance/The level of expressed mRNA in the absence of chemical substance: 1.2
Yeast gene YKL013C
  The level of expressed mRNA in the presence of chemical substance/The level of expressed mRNA in the absence of chemical substance: 1.4
Yeast gene YKL039W
  The level of expressed mRNA in the presence of chemical substance/The level of expressed mRNA in the absence of chemical substance: 0.8
Yeast gene YKL041W
  The level of expressed mRNA in the presence of chemical substance/The level of expressed mRNA in the absence of chemical substance: 1.2
Yeast gene YKL071W, ratio to control without chemical substance, 2 h culture
  The level of expressed mRNA in the presence of chemical substance/: 8.3
